Measurements taken from patent US11884649B2, “IRE1α inhibitors and uses thereof” (The Regents of the University of California, priority 2020, dated 2024).

What was measured:
IRE1α = target: T1, IRE1α (Rattus norvegicus, UniProt A0A4Y1YQ52); assay: ER stress-mediated IRE1α autophosphorylation by Phos-tag SDS-PAGE in INS-1 cells (Brefeldin-A); format: cell-based; details: various concentrations, 200 ng/μL Brefeldin-A (BFA) for 2 hours
T1 construct: endogenous in cells; host or cells: INS-1 rat insulinoma beta cells
Method: FIG. 21. […] Immunoblots for total IRE1α (bottom) from INS-1 cells treated with various concentrations of PAIR1 or KIRA9 followed by the addition of 200 ng/μL Brefeldin-A (BFA) for 2 hours. Samples were subjected to Phos-tag SDS-PAGE and % autophosphorylated IRE1α (top) was determined from the ratio of phosphorylated IRE1α relative to total IRE1α. Values shown are mean±SEM (n=3).
Treatment Conditions for Phostag Gels
INS-1 or IRE1α-overexpressing isogenic INS-1 cells were plated onto a 24-well Poly-D-Lysine coated tissue culture plate and grown for 48 hrs. Inhibitor or DMSO were added to the media and incubated for 1 hour at 37° C. with 5% CO2 prior to addition of ER stress agents. […] Cells were lysed directly into SDS loading buffer (50 mM Tris, 100 mM DTT, 2% SDS (w/v), 10% glycerol (v/v), and 0.1% bromophenol blue (w/v), pH 6.8) and boiled for five minutes prior to gel loading.
Phostag Acrylamide Gel Procedure
A phostag acrylamide gel recipe used to resolve phosphorylation of IRE1α has been previously established and this recipe was followed verbatim for this study.^91 Resolving gels were allowed to solidify (˜1.5 hr) before adding the stacking gel and comb and allowed to solidify (˜1 hr). Gels were run using Tris-Glycine-SDS running buffer (25 mM Tris, 192 mM glycine, 0.1% SDS, pH 8.3) at 100 V for 3-3.5 hours. […]

mouse splenocytes = assay: LPS-induced differentiation of mouse splenocytes into plasma cells (flow cytometry, IgM ELISA); format: cell-based; details: 1 μg/mL LPS, three days; for IgM secretion / plasma cell (CD138+) differentiation: 20 μM-1.25 μM
Method: Therefore, we sought to compare the sensitivity of this process to both KIRAs and PAIRs. To this end, we assessed how KIRA8, KIRA9, and PAIR1 affected the differentiation of lipopolysaccharide (LPS)-treated mouse splenocytes into antibody-secreting plasma cells. Total live number of CD19+ B-cells were assessed and plasma cells were quantified on the basis of B220 downregulation and CD138 expression by flow cytometry (FIGS. 6A-6C, FIG. 24). Concomitantly, secreted IgM was measured in the cell culture supernatants by ELISA (FIG. 6C).
Splenocyte Isolation and Differentiation
Red blood cells were lysed with ammonium chloride potassium buffer. Splenocytes were plated at 2.5×10^5 cells/well in a 96-well round bottom plate in complete media. The splenocytes were treated with or without 1 μg/ml LPS 026:b6 (Sigma). […] The splenocytes were incubated for three days in a 37° C., 5% CO2 humidified chamber before collection and staining for flow cytometry.
Cells from the plasma cell assay were collected in a 96-well plate and washed with PBS followed by staining with LIVE/DEAD Fixable Near-IR Dead Cell Stain kit (Invitrogen). Reagent was reconstituted as per manufacturer's instructions, diluted 1:1000 in PBS, and cells were stained in 100 μL on ice for 20 minutes. The cells were then washed with FACS buffer, PBS (Corning), 2 mM EDTA and 2% heat inactivated fetal bovine serum (Omega Scientific). The cells were then stained with 50 μL antibody cocktail consisting of anti-CD19 (BioLegend), anti-CD45R (BD Pharmingen), and anti-CD138 (BioLegend) in FACS buffer on ice for 15 minutes. Cells were resuspended in FACS buffer and combined with an equal volume of 4% paraformaldehyde with 5000 Countbright Absolute Counting Beads (Thermofisher). Stained cells were analyzed on a Fortessa (Becton Dickinson). Data analysis was performed using FlowJo (v10) software (Treestar Inc.).
Media supernatants from the in vitro plasma cell differentiation assay were measured for secreted IgM by ELISA. […] Wash buffer (PBS with 0.05% Tween-20 (v/v)) was used for all washing steps and blocked with PBS-BB (PBS without Ca^2+/Mg^2+, 1% BSA (w/v), 0.05% Tween-20 (v/v)). Supernatants from LPS stimulated samples were diluted (1:100) and media only samples were diluted (1:10) in PBS-BB. […] ELISA plates were developed with TMB (Sigma) and stopped with 1N sulfuric acid. Absorbance was measured at 450 nm using spectrophotometer (Spectramax M5, Molecular Devices). Sample IgM concentration values were calculated with SoftMaxPro software.

[1] = test system: XBP1 mRNA splicing / RIDD; assay: XBP1 splicing and Blos1 mRNA in LPS-treated splenocytes; format: cell-based, mouse; details: LPS treatment
IRE1α* = target: T2, IRE1α* (Homo sapiens, UniProt O75460); assay: In vitro kinase activity assay (IRE1α kinase inhibition); format: biochemical
T2 construct: human IRE1α (residues 547-977, IRE1α*) was expressed in SF9 insect cells; His6 (N); made in house; host or cells: Sf9 insect cells (Bac-to-Bac baculovirus)
How it was run: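 His6-tagged human IRE1α cytosolic kinase/RNase domains (residues 547-977) from SF9 cells, preincubated 30 min with inhibitor (top 10 or 60 μM, three-fold dilutions) in pH 7.5 HEPES/MgCl2 buffer, then 10 μCi [γ-32P]ATP, 23 °C, 3 h. Filter-spot autoradiography; inhibition normalised to no-kinase and DMSO wells; IC50 from one-site fit.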

T1 sequence (A0A4Y1YQ52 21-977): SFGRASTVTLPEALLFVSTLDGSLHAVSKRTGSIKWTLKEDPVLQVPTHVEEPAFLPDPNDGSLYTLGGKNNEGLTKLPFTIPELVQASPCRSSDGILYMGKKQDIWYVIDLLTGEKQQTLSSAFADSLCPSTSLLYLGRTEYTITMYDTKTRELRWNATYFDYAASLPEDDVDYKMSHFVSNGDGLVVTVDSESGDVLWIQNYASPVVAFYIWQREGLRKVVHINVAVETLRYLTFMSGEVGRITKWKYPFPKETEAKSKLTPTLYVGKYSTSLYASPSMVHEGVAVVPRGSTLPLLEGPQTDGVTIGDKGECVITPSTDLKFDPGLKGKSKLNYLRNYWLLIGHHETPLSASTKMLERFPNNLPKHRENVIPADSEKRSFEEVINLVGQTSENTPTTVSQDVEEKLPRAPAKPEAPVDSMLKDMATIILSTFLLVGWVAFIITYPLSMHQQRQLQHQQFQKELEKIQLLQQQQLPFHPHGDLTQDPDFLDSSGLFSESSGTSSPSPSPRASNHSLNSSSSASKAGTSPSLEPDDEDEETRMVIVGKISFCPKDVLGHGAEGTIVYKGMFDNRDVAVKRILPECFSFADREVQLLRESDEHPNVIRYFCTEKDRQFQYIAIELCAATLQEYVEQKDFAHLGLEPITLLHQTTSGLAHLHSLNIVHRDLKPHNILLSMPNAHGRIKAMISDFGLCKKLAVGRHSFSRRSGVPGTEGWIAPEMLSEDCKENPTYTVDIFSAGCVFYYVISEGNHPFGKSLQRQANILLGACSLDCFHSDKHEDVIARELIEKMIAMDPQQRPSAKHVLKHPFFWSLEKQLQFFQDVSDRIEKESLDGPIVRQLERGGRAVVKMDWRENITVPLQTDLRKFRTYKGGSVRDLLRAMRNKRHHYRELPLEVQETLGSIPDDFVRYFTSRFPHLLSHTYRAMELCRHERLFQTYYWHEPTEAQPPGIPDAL
T2 sequence (O75460 547-977): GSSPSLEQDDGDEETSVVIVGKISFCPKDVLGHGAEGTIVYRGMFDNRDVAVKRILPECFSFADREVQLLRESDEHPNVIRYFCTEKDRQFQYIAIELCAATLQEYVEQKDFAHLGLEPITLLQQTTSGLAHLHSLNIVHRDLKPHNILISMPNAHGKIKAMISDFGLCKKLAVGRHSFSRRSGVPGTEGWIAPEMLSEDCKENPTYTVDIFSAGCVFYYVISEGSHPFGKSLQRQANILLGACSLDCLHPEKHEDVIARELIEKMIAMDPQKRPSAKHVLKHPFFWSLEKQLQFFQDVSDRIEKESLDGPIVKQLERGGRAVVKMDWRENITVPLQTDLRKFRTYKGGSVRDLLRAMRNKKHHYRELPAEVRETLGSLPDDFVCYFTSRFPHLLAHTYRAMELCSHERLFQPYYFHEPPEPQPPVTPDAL

Ki (IRE1α*; read-out: Inhibition of IRE1α*'s kinase activity, Ki) [nM]	SMILES	IRE1α autophosphorylation (IRE1α)	overall number of B cells (CD19+), general toxicity (mouse splenocytes)	IgM secretion (mouse splenocytes)	plasma cell (CD138+) differentiation (mouse splenocytes)	Blos1 mRNA decay [1]	XBP1 mRNA splicing [1]	IC50 (IRE1α*; IRE1α kinase inhibition, read-out: IC50 IRE1a) [nM]
	O=S(=O)(CC(F)(F)F)Nc1ccc(Oc2ncccc2-c2ccnc(N[C@H]3CCCNC3)n2)c2ccccc12 (stereo in doubt) [PAIR1, 2,2,2-trifluoro-N-(4-(3-(2-(piperidin-3-ylamino)pyrimidin-4-yl)pyridin-2-yloxy)naphthalen-1-yl)ethanesulfonamide]	equipotently block ER stress-mediated IRE1α autophosphorylation	neither PAIR1 nor KIRA9 reduced the overall number of B cells	more modest inhibition	more modest inhibition	significantly rescued	reversed with KIRA9, but not with PAIR1	25
160	O=S(=O)(CCC(F)(F)F)Nc1ccc(Oc2ncccc2-c2ccnc(NC3CCCNC3)n2)c2ccccc12 (centres unmarked) [KIRA9, 3,3,3-trifluoro-N-(4-(3-(2-(piperidin-3-ylamino)pyrimidin-4-yl)pyridin-2-yloxy)naphthalen-1-yl)propane-1-sulfonamide]	equipotently block ER stress-mediated IRE1α autophosphorylation	neither PAIR1 nor KIRA9 reduced the overall number of B cells	reductions in both plasma cell differentiation and IgM secretion in a dose-dependent manner	reductions in both plasma cell differentiation and IgM secretion in a dose-dependent manner	significantly rescued	reversed	
